Data reported in ChEMBL document CHEMBL1152880, “Synthesis and SAR studies of trisubstituted purinones as potent and selective adenosine A2A receptor antagonists” (Bioorg Med Chem Lett, 2009).

Experiments:
Adenosine receptor A1 = target: T1, Adenosine receptor A1 (Homo sapiens, UniProt P30542); experiment: Displacement of [3H]DPCPX from human recombinant adenosine A1 receptor expressed in CHOK1 cells; assay type: cell-based, CHO-K1
T1 sequence (P30542 whole entry): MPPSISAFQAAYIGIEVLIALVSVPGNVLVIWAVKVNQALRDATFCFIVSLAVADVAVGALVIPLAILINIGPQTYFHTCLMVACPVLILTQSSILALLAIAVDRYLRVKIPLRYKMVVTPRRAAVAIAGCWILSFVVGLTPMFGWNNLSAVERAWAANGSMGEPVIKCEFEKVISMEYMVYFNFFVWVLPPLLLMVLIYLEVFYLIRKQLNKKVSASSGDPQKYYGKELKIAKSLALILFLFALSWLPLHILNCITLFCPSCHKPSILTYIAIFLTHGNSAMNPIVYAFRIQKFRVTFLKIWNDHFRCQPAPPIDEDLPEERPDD

Adenosine receptor A2a = Adenosine receptor A2a (Homo sapiens, UniProt P29274); experiment: Displacement of [3H]SCH-58261 from human recombinant adenosine A2A receptor expressed in HEK293 cells; assay type: cell-based
Adenosine receptor A2a, sequence (P29274 whole entry): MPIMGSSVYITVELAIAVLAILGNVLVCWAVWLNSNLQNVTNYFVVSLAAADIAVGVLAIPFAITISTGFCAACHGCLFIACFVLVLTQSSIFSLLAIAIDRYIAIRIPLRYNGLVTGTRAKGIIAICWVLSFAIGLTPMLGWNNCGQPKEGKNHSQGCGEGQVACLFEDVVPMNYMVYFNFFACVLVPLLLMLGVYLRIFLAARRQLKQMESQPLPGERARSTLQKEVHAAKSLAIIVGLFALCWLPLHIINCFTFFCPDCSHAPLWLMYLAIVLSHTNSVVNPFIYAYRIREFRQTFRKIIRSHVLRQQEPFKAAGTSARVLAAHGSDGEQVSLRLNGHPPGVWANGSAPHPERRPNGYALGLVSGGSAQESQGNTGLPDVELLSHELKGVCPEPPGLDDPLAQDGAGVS

Homo sapiens = species on record: Homo sapiens; experiment: Selectivity ratio of Ki for human adenosine A1 receptor to Ki for human recombinant adenosine A2A receptor

SMILES: COc1cccc(-n2c(=O)n(-c3ccccc3OC)c3cnc(NC4CC4)nc32)c1
- Ki (Adenosine receptor A1): 1260 nM
- Ki (Adenosine receptor A2a): 5120 nM
- Ratio Ki (Homo sapiens): 0.2

SMILES: COc1cccc(-n2c(=O)n(Cc3c(F)cccc3F)c3cnc(Nc4cccnc4)nc32)c1
- Ki (Adenosine receptor A1): 1830 nM
- Ki (Adenosine receptor A2a): 111 nM
- Ratio Ki (Homo sapiens): 17

SMILES: COc1cccc(-n2c(=O)n(Cc3c(F)cccc3F)c3cnc(NCc4ccccn4)nc32)c1
- Ki (Adenosine receptor A1): 1210 nM
- Ki (Adenosine receptor A2a): 12 nM
- Ratio Ki (Homo sapiens): 100

SMILES: COc1cccc(-n2c(=O)n(Cc3ccccc3Cl)c3cnc(NC4CC4)nc32)c1
- Ki (Adenosine receptor A1): 2850 nM
- Ki (Adenosine receptor A2a): 86 nM
- Ratio Ki (Homo sapiens): 33

SMILES: COc1ccccc1Cn1c(=O)n(-c2cccc(OC(F)(F)F)c2)c2nc(NC3CC3)ncc21
- Ki (Adenosine receptor A1): 5140 nM
- Ki (Adenosine receptor A2a): 206 nM
- Ratio Ki (Homo sapiens): 25

SMILES: COc1cccc(-n2c(=O)n(Cc3c(F)cccc3OC)c3cnc(NC4CC4)nc32)c1
- Ki (Adenosine receptor A1): 330 nM
- Ki (Adenosine receptor A2a): 6 nM
- Ratio Ki (Homo sapiens): 55

SMILES: COc1cccc(-n2c(=O)n(Cc3ccccc3)c3cnc(NC4CC4)nc32)c1
- Ki (Adenosine receptor A1): 564 nM
- Ki (Adenosine receptor A2a): 54 nM
- Ratio Ki (Homo sapiens): 10

SMILES: COc1ccccc1Cn1c(=O)n(-c2cccc(C)c2)c2nc(NC3CC3)ncc21
- Ki (Adenosine receptor A1): 1850 nM
- Ki (Adenosine receptor A2a): 316 nM
- Ratio Ki (Homo sapiens): 6

SMILES: COc1cccc(-n2c(=O)n(Cc3ccccc3F)c3cnc(NC4CC4)nc32)c1
- Ki (Adenosine receptor A1): 201 nM
- Ki (Adenosine receptor A2a): 33 nM
- Ratio Ki (Homo sapiens): 6

SMILES: COCCNc1ncc2c(n1)n(-c1cccc(OC)c1)c(=O)n2Cc1c(F)cccc1F
- Ki (Adenosine receptor A1): 1470 nM
- Ki (Adenosine receptor A2a): 106 nM
- Ratio Ki (Homo sapiens): 14

SMILES: COc1cccc(-n2c(=O)n(Cc3c(F)cccc3F)c3cnc(NC4CC4)nc32)c1
- Ki (Adenosine receptor A1): 236 nM
- Ki (Adenosine receptor A2a): 4 nM
- Ratio Ki (Homo sapiens): 59

SMILES: COc1cccc(-n2c(=O)n(Cc3c(F)cccc3F)c3cnc(NCc4ccncc4)nc32)c1
- Ki (Adenosine receptor A1): 1190 nM
- Ki (Adenosine receptor A2a): 50 nM
- Ratio Ki (Homo sapiens): 24

SMILES: COc1cccc(-n2c(=O)n(Cc3c(F)cccc3F)c3cnc(NC(C)C)nc32)c1
- Ki (Adenosine receptor A1): 616 nM
- Ki (Adenosine receptor A2a): 60 nM
- Ratio Ki (Homo sapiens): 10

SMILES: COc1cccc(-n2c(=O)n(Cc3c(F)cccc3F)c3cnc(NCCc4ccccn4)nc32)c1
- Ki (Adenosine receptor A1): 1800 nM
- Ki (Adenosine receptor A2a): 78 nM
- Ratio Ki (Homo sapiens): 23

SMILES: COc1cccc(-n2c(=O)n(Cc3c(F)cccc3F)c3cnc(NCc4cccnc4)nc32)c1
- Ki (Adenosine receptor A1): 1300 nM
- Ki (Adenosine receptor A2a): 66 nM
- Ratio Ki (Homo sapiens): 20

SMILES: COc1cccc(-n2c(=O)n(C(C)c3ccccc3)c3cnc(NC4CC4)nc32)c1 (centres undefined)
- Ki (Adenosine receptor A2a): 359 nM

SMILES: COc1cccc(Cn2c(=O)n(Cc3ccccc3OC)c3cnc(NC4CC4)nc32)c1
- Ki (Adenosine receptor A1): > 10000 nM
- Ki (Adenosine receptor A2a): 9210 nM

SMILES: COc1ccccc1Cn1c(=O)n(-c2cccc(C#N)c2)c2nc(NC3CC3)ncc21
- Ki (Adenosine receptor A1): 3240 nM
- Ki (Adenosine receptor A2a): 2590 nM
- Ratio Ki (Homo sapiens): 1.3

SMILES: COc1cccc(-n2c(=O)n(C)c3cnc(NC4CC4)nc32)c1
- Ki (Adenosine receptor A2a): 2640 nM

SMILES: COc1cccc(-n2c(=O)n(Cc3c(F)cccc3F)c3cnc(NCCc4cccs4)nc32)c1
- Ki (Adenosine receptor A1): 1970 nM
- Ki (Adenosine receptor A2a): 9 nM
- Ratio Ki (Homo sapiens): 220

SMILES: CCNc1ncc2c(n1)n(-c1cccc(OC)c1)c(=O)n2Cc1c(F)cccc1F
- Ki (Adenosine receptor A1): 1050 nM
- Ki (Adenosine receptor A2a): 31 nM
- Ratio Ki (Homo sapiens): 34

SMILES: COc1cccc(-n2c(=O)n(Cc3c(F)cccc3F)c3cnc(NC4CCCC4)nc32)c1
- Ki (Adenosine receptor A1): 1060 nM
- Ki (Adenosine receptor A2a): 213 nM
- Ratio Ki (Homo sapiens): 5

SMILES: COc1cccc(-n2c(=O)n(Cc3c(F)cccc3F)c3cnc(NCc4ccccc4)nc32)c1
- Ki (Adenosine receptor A1): 2970 nM
- Ki (Adenosine receptor A2a): 72 nM
- Ratio Ki (Homo sapiens): 42

SMILES: COc1cccc(-n2c(=O)n(Cc3c(F)cccc3F)c3cnc(NCCN(C)C)nc32)c1
- Ki (Adenosine receptor A1): 10000 nM
- Ki (Adenosine receptor A2a): 261 nM
- Ratio Ki (Homo sapiens): 38

SMILES: COc1ccccc1Cn1c(=O)n(-c2cccc(F)c2)c2nc(NC3CC3)ncc21
- Ki (Adenosine receptor A1): 599 nM
- Ki (Adenosine receptor A2a): 89 nM
- Ratio Ki (Homo sapiens): 7

SMILES: COc1cc(OC)cc(-n2c(=O)n(Cc3ccccc3OC)c3cnc(NC4CC4)nc32)c1
- Ki (Adenosine receptor A1): 4640 nM
- Ki (Adenosine receptor A2a): 76 nM
- Ratio Ki (Homo sapiens): 61

SMILES: CNc1ncc2c(n1)n(-c1cccc(OC)c1)c(=O)n2Cc1c(F)cccc1F
- Ki (Adenosine receptor A1): 1110 nM
- Ki (Adenosine receptor A2a): 23 nM
- Ratio Ki (Homo sapiens): 49

SMILES: COc1cccc(-n2c(=O)n(Cc3c(F)cccc3F)c3cnc(NCC4CC4)nc32)c1
- Ki (Adenosine receptor A1): 1070 nM
- Ki (Adenosine receptor A2a): 499 nM
- Ratio Ki (Homo sapiens): 2

SMILES: COc1ccccc1Cn1c(=O)n(-c2ccccc2)c2nc(NC3CC3)ncc21
- Ki (Adenosine receptor A1): 447 nM
- Ki (Adenosine receptor A2a): 409 nM
- Ratio Ki (Homo sapiens): 1.1

SMILES: COc1ccccc1Cn1c(=O)n(-c2ccccc2OC)c2nc(NC3CC3)ncc21
- Ki (Adenosine receptor A2a): 1560 nM

SMILES: COc1cccc(-n2c(=O)n(Cc3ccccc3OC)c3cnc(NC4CC4)nc32)c1
- Ki (Adenosine receptor A1): 402 nM
- Ki (Adenosine receptor A2a): 24 nM
- Ratio Ki (Homo sapiens): 17

SMILES: COc1cccc(-n2c(=O)n(Cc3c(F)cccc3F)c3cnc(NCCN4CCOCC4)nc32)c1
- Ki (Adenosine receptor A1): 8600 nM
- Ki (Adenosine receptor A2a): 259 nM
- Ratio Ki (Homo sapiens): 33
